Experimental data published in patent US8097612B2 (priority 2006, dated 2012).

Experiments:
[1] = target: F1Fo-ATPase; assay: Inhibition of the F1Fo-ATPase; type: biochemical; conditions: binds to the OSCP in F1
Source text: F1Fo-ATPase inhibitors are invaluable tools for mechanistic studies of the F1Fo-ATPase (see, e.g., James A M, et al., J Biomed Sci 2002; 9:475-87; herein incorporated by reference in its entirety). Because F1Fo-ATPase inhibitors are often cytotoxic, they have been explored as drugs for cancer and other hyperproliferative disorders. Macrolides (e.g., oligomycin and apoptolidin) are non-competitive inhibitors of the F1Fo-ATPase (see, e.g., Salomon A R, et al., PNAS 2000; 97:14766-71; Salomon A R, et al., Chem Biol 2001; 8:71-80; herein incorporated by reference in its entirety). Macrolides bind to Fo which blocks proton flow through the channel resulting in inhibition of the F1Fo-ATPase. Macrolides are potent (e.g., the IC50 for oligomycin=10 nM) and lead to large decreases in [ATP]. As such, macrolides have an unacceptably narrow therapeutic index and are highly toxic (e.g., the LD50 for oligomycin in rodents is two daily doses at 0.5 mg/kg) (see, e.g., Kramar R, et al., Agents & Actions 1984, 15:660-63; herein incorporated by reference in its entirety). Other inhibitors of F1Fo-ATPase include Bz-423, which binds to the OSCP in F1 (as described elsewhere herein). Bz-423 has an Ki˜9 μM.

[2] = target: F1Fo-ATPase; conditions: macrolide, non-competitive inhibitor binding to Fo; read-out: IC50 for inhibition of the F1Fo-ATPase; cited from earlier work
[3] = test system: rodents; conditions: two daily doses; cited from earlier work

Row | SMILES | Ki [1] [µM] | IC50 [2] [µM] | LD50 [3] [mg/kg]
1 | CN1C(=O)C(Cc2ccc3ccccc3c2)N=C(c2ccc(O)cc2)c2cc(Cl)ccc21 (stereo not drawn) [Bz-423] | ~9 |  | 
2 | CC[C@H]1/C=C/C=C/C[C@@H](C)[C@H](O)[C@@](C)(O)C(=O)[C@@H](C)[C@H](O)[C@@H](C)C(=O)[C@@H](C)[C@H](O)[C@@H](C)/C=C/C(=O)O[C@@H]2[C@H](C)[C@H](CC1)O[C@]1(CC[C@H](C)[C@H](C[C@@H](C)O)O1)[C@H]2C [oligomycin] |  | 0.01 | 0.5
